Experimental data as given in ChEMBL document CHEMBL1139664, “Identification of a novel series of tetrahydrodibenzazocines as inhibitors of 17beta-hydroxysteroid dehydrogenase type 3” (Bioorg Med Chem Lett, 2006).

Experiments:
[1] = target: T1, 17-beta-hydroxysteroid dehydrogenase type 3 (Homo sapiens, UniProt P37058); test: Inhibition of 17beta-HSD3
T1 sequence (P37058 whole entry): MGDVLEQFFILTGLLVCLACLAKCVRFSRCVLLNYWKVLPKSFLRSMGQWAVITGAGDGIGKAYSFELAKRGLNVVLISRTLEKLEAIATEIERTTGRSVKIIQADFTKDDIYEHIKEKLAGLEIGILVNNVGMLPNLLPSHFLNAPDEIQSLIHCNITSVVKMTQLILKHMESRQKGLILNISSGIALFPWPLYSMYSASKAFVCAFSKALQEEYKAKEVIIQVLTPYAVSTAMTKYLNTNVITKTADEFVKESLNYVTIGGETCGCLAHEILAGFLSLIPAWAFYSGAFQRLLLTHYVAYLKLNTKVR

[2] = target: T1, 17-beta-hydroxysteroid dehydrogenase type 3; test: Inhibition of 17beta-HSD3 by SEAP assay
Liver microsomes = test: Stability in human liver microsome at 10 uM; assay type: ADME

IC50 [1] [nM]	IC50 [2] [nM]	Stability (Liver microsomes) [nmol/mg/min]	SMILES
2060	> 10000		COc1ccc2c(c1)SCc1ccccc1CN2C(C)=O
160	260		CC(=O)N1Cc2ccc(NC(=O)c3ccccc3)cc2CCc2ccccc21
> 1000	2980		CC(=O)N1Cc2ccc(C(N)=O)cc2CCc2ccccc21
8	4		CC(=O)N1Cc2ccc(NCc3ccccc3)cc2CCc2ccccc21
30	170		CC(=O)N1Cc2ccccc2CSc2ccc(Cl)cc21
90	290		CC(=O)N1Cc2ccccc2CSc2cc(F)ccc21
9	32		CC(=O)N1Cc2cc(Br)ccc2CCc2ccccc21
10	130		CC(=O)N1Cc2ccccc2CSc2cc(Cl)c(Cl)cc21
250	120		CC(=O)N1Cc2ccccc2CSc2cc(Br)ccc21
3	19		CC(=O)N1Cc2cc(-c3ccc(C#N)cc3)ccc2CCc2cc(Cl)ccc21
400	320		CC(=O)N1Cc2ccccc2CSc2ccccc21
1000	870		CC(=O)N1Cc2ccccc2CSc2cc(C)ccc21
239	182		CC(=O)N1Cc2cc(-c3ccccc3CN)ccc2CCc2cc(Cl)ccc21
0.7	1	0.4	COC(=O)c1ccccc1-c1ccc2c(c1)CN(C(C)=O)c1ccc(Br)cc1CC2
> 1000	2200		CCN1Cc2ccc(Br)cc2CCc2ccccc21
7	36		CC(=O)N1Cc2ccc(Br)cc2CCc2ccccc21
280	930		NC(=O)N1Cc2ccc(Br)cc2CCc2ccccc21
25	25		CNC(=O)c1ccccc1-c1ccc2c(c1)CN(C(C)=O)c1ccc(Cl)cc1CC2
3	15		CC(=O)N1Cc2cc(-c3cccc(C#N)c3)ccc2CCc2cc(Cl)ccc21
11500			CC(=O)N1Cc2ccccc2CSc2cccc(Cl)c21
2810			CC(=O)N1Cc2ccccc2CSc2ccc(C(F)(F)F)cc21
4	18		CC(=O)N1Cc2cc(-c3ccccc3)ccc2CCc2cc(Cl)ccc21
320	1750		O=C(C1CC1)N1Cc2ccc(Br)cc2CCc2ccccc21

IC50 [1] [nM]	IC50 [2] [nM]	Stability (Liver microsomes) [nmol/mg/min]	SMILES
> 10000			CC(=O)N1Cc2ccccc2CSc2cc(S(C)(=O)=O)ccc21
490	490		CC(=O)N1Cc2ccc(N)cc2CCc2ccccc21
5	62		CC(=O)N1Cc2cc(-c3ccccc3C#N)ccc2CCc2cc(Cl)ccc21
760	1300		CC(=O)N1Cc2ccccc2CSc2c1ccc(Cl)c2Cl
	0.5	0.9	COC(=O)c1ccccc1-c1ccc2c(c1)CN(C(C)=O)c1ccc(Cl)cc1CC2
50	130		CC(=O)N1Cc2ccccc2CCc2ccc(Cl)cc21
3	48		COc1ccc(-c2ccc3c(c2)CN(C(C)=O)c2ccc(Cl)cc2CC3)cc1
8	53		COc1cccc(-c2ccc3c(c2)CN(C(C)=O)c2ccc(Cl)cc2CC3)c1
2	5		COc1ccccc1-c1ccc2c(c1)CN(C(C)=O)c1ccc(Cl)cc1CC2
	0.5		CC(=O)c1ccccc1-c1ccc2c(c1)CN(C(C)=O)c1ccc(Cl)cc1CC2
0.9	2		CC(=O)N1Cc2cc(-c3ccccc3CO)ccc2CCc2cc(Cl)ccc21
	4		CC(=O)N1Cc2cc(-c3ccccc3)ccc2CCc2ccccc21
100	160		CC(=O)N1Cc2ccccc2CSc2cc(Cl)ccc21
90	220		CC(=O)N1Cc2ccccc2CCc2ccccc21
2970			CC(=O)N1Cc2ccccc2COc2ccccc21
4860			CC(=O)N1Cc2ccccc2CSc2cc(O)ccc21
4740	> 10000		CC(=O)N1Cc2ccccc2CNc2ccccc21
2	9		CC(=O)N1Cc2cc(-c3ccccc3NS(C)(=O)=O)ccc2CCc2cc(Cl)ccc21
140	190		CC(=O)N1Cc2cc(-c3cccc(NS(C)(=O)=O)c3)ccc2CCc2cc(Cl)ccc21
70	630		CC(=O)N1Cc2ccccc2CCc2cc(Cl)ccc21
1.4	2		COC(=O)c1cccc(-c2ccc3c(c2)CN(C(C)=O)c2ccc(Cl)cc2CC3)c1
290	180		CC(=O)N1Cc2cc(-c3cccc(CN)c3)ccc2CCc2cc(Cl)ccc21
240	500		CC(=O)N1Cc2ccccc2/C=C\c2cc(Cl)ccc21
